Laboratory results taken from PubChem BioAssay (NCI).
“And” between values parts separate entries of the source, which are not always exact repeats. Equal entries are not always repeated.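 How tested: cells in 96-well plates exposed to compound for 48 hours at five concentrations. At the GI50, growth is halved. The concentration for full growth arrest is given as TGI.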

Experiments:
Assay in all cases: NCI-60 cell line screen, 48 h
DLD-1 colon = system: DLD-1 colon
DMS 114 small cell lung = system: DMS 114 small cell lung
DMS 273 small cell lung = system: DMS 273 small cell lung
LXFL 529 NSCLC = system: LXFL 529 NSCLC
BT-549 breast = system: BT-549 breast
MCF7 breast = system: MCF7 breast
MDA-N = system: MDA-N

| Structure (SMILES) | GI50 (BT-549 breast) | TGI (BT-549 breast) [µM] | GI50 (MCF7 breast) | TGI (MCF7 breast) | other results |
| --- | --- | --- | --- | --- | --- |
| COC(=O)/C(C#N)=C1\N=NNN1CCCN1CCOCC1 | – | – | – | – | TGI (DLD-1 colon): > 100 µM; TGI (DMS 114 small cell lung): > 100 µM; TGI (DMS 273 small cell lung): > 100 µM; TGI (LXFL 529 NSCLC): > 100 µM |
| Cc1nn(-c2ccccc2)c2c1C1C(=C(c3ccc(Cl)cc3)N2)C(=O)Nc2ccccc21 (stereo unspecified) | 2.81 µM | 9.32 | 3.16 µM | > 100 µM | – |
| C[C@@H](NC(=O)Cc1cc(F)cc(F)c1)C(=O)N[C@@]1(C)N=C(c2ccccc2)c2ccccc2N(C)C1=O | 9.6 µM | > 66.4 | 36.5 µM | > 100 µM | – |
| N#CC1c2ccccc2-c2ccccc2N1C(=O)c1ccccc1 (stereo unspecified) | 0.507 µM | 2.54 | 1.3 µM | > 100 µM | – |
| COc1cc2c3c(c1OC)-c1ccccc1C(C(OC(C)=O)c1ccccc1)C3N(C)CC2 (stereo unspecified) | – | – | – | – | TGI (DLD-1 colon): 91 µM; TGI (DMS 114 small cell lung): > 100 µM; TGI (DMS 273 small cell lung): > 100 µM; TGI (LXFL 529 NSCLC): > 100 µM |
| Cn1c(=O)n(-c2ccc(C(C)(C)C#N)cc2)c2c3cc(-c4cnc5ccccc5c4)ccc3ncc21 | 0.00493 µM and < 0.01 µM | – | < 0.01 µM and 0.00562 µM | 12.2 µM and > 5.84 µM and > 100 µM | – |
| CC[C@@]1(OC(=O)CN)C(=O)OCc2c1cc1n(c2=O)Cc2cc3cc(N)ccc3nc2-1 | 1.3 µM | > 100 | < 0.01 µM | > 100 µM | GI50 (MDA-N): 0.0772 µM; TGI (MDA-N): 1.09 µM |
| O=C1c2cccnc2C(=O)c2c1c(C(=O)OCCCN1CCOCC1)c1ccccn21 | 0.0375 µM | 1.82 | < 0.01 µM | < 0.0116 µM | – |
| O=C1c2ccccc2-c2cc3ccccc3c(=O)n21 | – | – | – | > 100 µM | TGI (MDA-N): > 100 µM |
| CCOC(=O)c1[nH]c2c(c1C)-c1[nH]c(=O)c(S(=O)(=O)c3ccccc3)cc1SC2 | 36.5 µM | > 100 | 40.4 µM | > 100 µM | – |
| Cc1nnc([S-])s1.[Au+].c1ccc([PH+](c2ccccc2)c2ccccc2)cc1 | 1.47 µM | 2.88 | – | – | – |
| CCN(CC)CCC(=O)Nc1ccc(Cn2nnc3c2C(=O)c2nnn(Cc4ccc(NC(=O)CCN(CC)CC)cc4)c2C3=O)cc1 | 1.64 µM | 3.06 | 0.154 µM | 0.373 µM | – |
| COc1ccc2c(c1O)[C@@]13C=C(O)C(=O)C=C1[C@@H](C2)N(C)CC3 | – | > 100 | – | > 100 µM | TGI (MDA-N): > 100 µM |
| c1ccc2c(c1)nc(NCCN1CCNCC1)c1c3ccccc3[nH]c21 | 1.53 µM | 4.04 | 0.0799 µM | 0.709 µM | – |
| CC1Cc2c(N(C)C)ncnc2N(C)c2ccc(Cl)cc21 (stereo unspecified) | 6.63 µM | 32.1 | 1.51 µM | > 100 µM | – |
| Nc1ncnc2occ(-c3ccc(NC(=O)Nc4cc(C(F)(F)F)cc(C(F)(F)F)c4)cc3)c12 | 2.66 µM | 5.77 | 3.19 µM | 6.96 µM | – |
| CN1C(=O)c2cc(Cl)nc3c(NC(=O)c4cccc(Cl)c4)c(Cl)c(NC(=O)c4cccc(Cl)c4)c1c23 | 1.64 µM | 3.19 | 1.94 µM | 6.26 µM | – |
| COC(=O)c1cc(Nc2ccc(O)c3c2C(=O)c2c([N+](=O)[O-])ccc(O)c2C3=O)cc(C(=O)OC)c1 | 13.7 µM | > 100 | 4.3 µM | > 100 µM | – |
| O=c1oc(-c2ccc(O)c(O)c2)cc2cc(O)cc(O)c12 | 26.2 µM | 84.8 | 42.7 µM | > 100 µM | – |
| CC1(C)N=C(N)N=C(N)N1c1ccc(OCC(=O)Nc2cccc(S(=O)(=O)F)c2)c(Cl)c1 | > 100 µM | > 100 | – | > 43.5 µM | – |
| CCCC/C(=N\N=C(N)N)c1ccc(F)cc1 | 3.48 µM | 12.5 | 0.758 µM | 11.9 µM | – |
| Cc1ccc(C2=Nc3c(N)ncnc3NC(c3cccc(Nc4ccnc5cc(C(F)(F)F)ccc45)c3)C2)cc1 (stereo unspecified) | 2.83 µM | 13.4 | 2.41 µM | 11.5 µM | – |
| O=C(/C=C/N1CCN(c2cccc(C(F)(F)F)c2)CC1)c1ccc(Cl)cc1Cl | 20.5 µM | 40.3 | 24.7 µM | 60.7 µM | – |
| COc1cc(C(c2cc3c(cc2O)OCO3)N2CCCC2)cc(OC)c1OC (stereo unspecified) | – | – | – | 63.8 µM | TGI (MDA-N): 27.9 µM |
| CCN(CC)CCOc1ccc(/C=C2\C[C@H]3[C@@H]4CC=C5C[C@@H](OC(C)=O)CC[C@]5(C)[C@H]4CC[C@]3(C)[C@H]2OC(C)=O)cc1OC | – | – | 12.8 µM | > 50 µM | – |
| C/C(=C(/c1ccc(O)cc1)c1ccc(OCCN2CCCC2)cc1)c1ccccc1 | 4.2 µM | 15.7 | – | 2.72 µM | – |
| O=C1[C@H]2C(c3ccccc3)=NN(C(=O)c3ccccc3)[C@H]2C(=O)N1c1ccccc1 | – | – | – | – | TGI (DLD-1 colon): > 100 µM; TGI (DMS 114 small cell lung): > 100 µM; TGI (DMS 273 small cell lung): > 100 µM |

| Structure (SMILES) | GI50 (BT-549 breast) | TGI (BT-549 breast) [µM] | GI50 (MCF7 breast) | TGI (MCF7 breast) | other results |
| --- | --- | --- | --- | --- | --- |
| CCOC(=O)/C=C1\Nc2ccccc2C(c2ccccc2)=NC1OC(C)=O (stereo unspecified) | – | – | – | – | TGI (DLD-1 colon): > 100 µM; TGI (DMS 114 small cell lung): > 100 µM; TGI (DMS 273 small cell lung): > 100 µM; TGI (LXFL 529 NSCLC): > 100 µM |
| O=C(N[C@@H]1CCCc2ccccc21)[C@H](CCC(=O)N1CCN(C2CCCCC2)CC1)N1C(=O)[C@@H](N2C(=O)OC[C@@H]2c2ccccc2)[C@H]1/C=C/c1ccccc1 | 1.76 µM | 3.92 | 2.18 µM | 13.4 µM | – |
| CC(CC(=O)O)(CC(=O)O)C(=O)O | – | > 100 | – | > 100 µM | TGI (MDA-N): > 100 µM |
| CCOP(=O)(OCC)/C(C#N)=C\c1cccc2ccccc12 | – | > 100 | – | > 100 µM | TGI (MDA-N): > 100 µM |
| CC(C)(C)n1cc(-c2ccnc(NCCNS(=O)(=O)c3ccc(Br)cc3)c2)c(-c2cccc(O)c2)n1 | 1.64 µM | 3.2 | 1.48 µM | 3.7 µM | – |
| CC(C)OP(=O)(OC(C)C)C(N(C)C)P(=O)(OC(C)C)OC(C)C.[Cl][Sn]([Cl])([Cl])[c]1ccccc1 | – | – | – | – | GI50 (DLD-1 colon): 2.89 µM; TGI (DLD-1 colon): > 100 µM; GI50 (DMS 114 small cell lung): 3.68 µM; TGI (DMS 114 small cell lung): 23.1 µM; GI50 (DMS 273 small cell lung): 2.67 µM; TGI (DMS 273 small cell lung): 10.6 µM |
| COc1ccc2nc3ccc(OC)cc3c(SCCCN)c2c1 | 10.5 µM | 23.4 | – | – | – |
| Cc1c(C(C)C)cc(OCCO)cc1C(C)C | – | > 100 | – | > 100 µM | TGI (MDA-N): > 100 µM |
| O=C1C=C(Nc2cccc(Br)c2)c2ccccc2C1=O | 4.58 µM | 33.9 | 2.71 µM | 24.2 µM | – |
| COc1cc(C2C3=C(COC3=O)N(CCO)c3cc4c(cc32)CCC4)cc(OC)c1O (stereo unspecified) | 0.68 µM | > 9.16 | 0.107 µM | > 21.4 µM | – |
| CC(=O)[CH-]C(=O)c1ccccc1.CC(=O)[CH-]C(=O)c1ccccc1.[O]=[U+2]=[O] | – | – | – | – | GI50 (DLD-1 colon): 29.7 µM; TGI (DLD-1 colon): > 100 µM; GI50 (LXFL 529 NSCLC): 32.7 µM; TGI (LXFL 529 NSCLC): > 100 µM |
| COc1cccc(-c2nn(-c3ccccc3)cc2-c2ccnc(NCCNC(=O)Nc3ccc(Cl)c(Cl)c3)c2)c1 | 2.94 µM | 10.4 | 2.46 µM | 11.7 µM | – |
| Cc1ccc(NCSc2ccc(Cl)cc2)cc1 | 6.43 µM | > 100 | > 100 µM | > 100 µM | – |
| Oc1cccc(-c2nc3ccccc3s2)c1 | – | > 100 | – | > 100 µM | TGI (MDA-N): 98.7 µM |
| COc1ccccc1C(=O)c1cnc(NC2CCN(S(C)(=O)=O)CC2)nc1N | > 13.3 µM | > 25 | 1.19 µM | > 25 µM | – |
| COc1ccc(C2=CC(c3cc(OC)c(OC)c(OC)c3)n3ncnc3N2)cc1 (stereo unspecified) | 0.0684 µM | 2.04 | 0.0399 µM | 13.7 µM | – |
| CC[C@]12C=CCN3CC[C@]4(C(=C(C(=O)OC)C1)Nc1cc(O)ccc14)[C@@H]32 | 20.6 µM | 41.9 | 19.1 µM | 45.5 µM | – |
| Cc1ccc([P+](Cc2ccc([N+](=O)[O-])cc2)(c2ccc(C)cc2)c2ccc(C)cc2)cc1 | 2.68 µM | 8.87 | 2.72 µM | 12.6 µM | – |
| CN1CCCC1c1cccnc1.O=C(O)c1ccccc1O.O=C([O-])c1ccccc1[OH2+].O=C([O-])c1ccccc1[OH2+].O=C([O-])c1ccccc1[OH2+].[Mn+2] (stereo unspecified) | 39.7 µM | > 100 | 50 µM | > 100 µM | GI50 (MDA-N): > 100 µM; TGI (MDA-N): > 100 µM |
| COc1c(O)c(OC)c(C(=O)/C=C/c2ccccc2)c(O)c1OC | – | – | – | > 100 µM | TGI (MDA-N): 46 µM |
| COC(=O)[C@H](Cc1ccccc1)NC(=O)c1csc([C@@H](C[C@H](C(C)C)N(C)C(=O)[C@@H](NC(=O)[C@H]2CCCCN2C)C2CC2)OC(C)=O)n1 | 0.0349 µM | 0.556 | 0.0108 µM | > 25 µM | – |
| O=C(Oc1c(I)ccccc1=O)c1ccc([N+](=O)[O-])cc1 | – | 41.8 | – | 35.5 µM | – |
| O=C(OCc1ccccc1CN1CCOCC1)c1ccc(Br)cc1 | – | > 100 | – | > 100 µM | – |
| CO[C@H]1C=C[C@]23c4cc5c(cc4CN(CC2O)[C@@H]3C1)OCO5 (stereo partly specified) | – | 13.7 | – | – | TGI (MDA-N): 64.8 µM |
| O=C1OC(c2ccc(O)cc2)(c2ccc(O)cc2)c2cccc3cccc1c23 | 1.26 µM | 4.01 | 1.98 µM | 25.9 µM | – |
| CCC1OCCN1C(C)C (stereo unspecified) | – | – | – | – | TGI (DLD-1 colon): > 100 µM; TGI (DMS 114 small cell lung): > 100 µM; TGI (DMS 273 small cell lung): > 100 µM; TGI (LXFL 529 NSCLC): > 100 µM |
